Laboratory results as given in patent publication US8642654B2, “Hydroxybutyrate ester and medical use thereof” (ISIS Innovation Limited, priority 2011, dated 2014).
Entries after “also recorded” stand apart in the source; their conditions may differ. Marks after values point to notes of the source that are not given here.

Assays:
[1] = Blood levels of (3R)-hydroxybutyrate after oral ingestion; type: in vivo; conditions: ingested orally
[2] = tested on: melanocyte-stimulating hormone receptor 4 (MC4R); test: Neuropeptide levels in sectioned rat brain by antibody techniques: MC4R; type: in vivo; conditions: rat hypothalamus, 14 days ketone diet
Description: (§1) In a 14-day study, Wistar rats weighing about 250 g were randomized to one of three diet groups (n=6 rats/group) and administered either a carbohydrate (“starch”) diet, a normal human (“fat”) diet or a ketone ester diet, in which the ketone ester used was the ketone monoester (3R)-hydroxybutyl (3R)-hydroxybutyrate diet (i.e. the compound of the invention). The three diets were eaten in pair fed meals for 3 hours per day. The composition of the diets expressed in terms of g/100 g are summarised in Table 5 and the compositions expressed in terms of % of calories are summarised in Table 6. After 14 days of feeding with the fat, carbohydrate or ketone ester diet, the levels of various neuropeptides known to be associated with decreased food intake and decreased appetite (“anorexigenic” peptides) were surveyed in the paraventricular nucleus (PVN) area of the hypothalamus and in the hippocampus of the rat brain. The neuropeptide levels were measured using standard antibody techniques performed on sectioned brains of the rats. The results are shown in the micrographs of FIGS. 3 to 9. The peptides measured were Brain Derived Neurotropic Factor (BDNF), melanocyte-stimulating hormone receptor 4 (MC4R), and Cocaine-and-Amphetamine Responsive Transcript (CART). […]

[3] = 14-day pair fed meal diets: food consumption and weight gain (Example 5); type: in vivo, Wistar rats; conditions: rats, 14-day study
Description: (§2) In a 14-day study, Wistar rats weighing about 250 g were randomized to one of three diet groups (n=6 rats/group) and administered either a carbohydrate (“starch”) diet, a normal human (“fat”) diet or a ketone ester diet, in which the ketone ester used was the ketone monoester (3R)-hydroxybutyl (3R)-hydroxybutyrate diet (i.e. the compound of the invention). The three diets were eaten in pair fed meals for 3 hours per day. The composition of the diets expressed in terms of g/100 g are summarised in Table 5 and the compositions expressed in terms of % of calories are summarised in Table 6.

[4] = In vivo testing, calorie-controlled diets, 66 days (Example 2); design: species or system Wistar rats
Description: Young adult male Wistar rats (starting weight 70 g) (Harlan UK Limited) (n=50) were housed at approximately 20° C. on a 12h:12h reverse light:dark photoperiod. Rats were fed standard laboratory chow (Chow) (SDS, Essex, UK) prior to the starting the experimental diets: (a) normal “Western” diet (Western) in which 34% of kilocalories came from added palmitate (n=20), (b) high-carbohydrate (CHO) in which 70% of kilocalories came from added corn starch (n=10) or (c) (3R)-hydroxybutyl (3R)-hydroxybutyrate diet (monoester) in which 30% of kilocalories came from (3R)-hydroxybutyl (3R)-hydroxybutyrate (n=20). The macronutrient compositions of the three diets are shown below. All diets contained the same energy in kCal/g but had different macronutrients. Rats were individually housed one week prior to the start of the experiments, so that they were accustomed to living in a solitary environment by the time the study started. They consumed standard laboratory chow ad libitum until they were placed on their experimental diet. Rats fed the Western and carbohydrate diets were fed the same number of calories as those consumed by the monoester-fed rats the previous day. All rats were fed for 66 days. After this period the rat body, heart and fat pad weights were determined.

[5] = tested on: Brain Derived Neurotropic Factor (BDNF); test: Neuropeptide levels in sectioned rat brain by antibody techniques: BDNF; type: in vivo; conditions: rat hypothalamus, ketone diet
Description: as §1

[6] = In vivo testing, meal-fed diets (Example 3); conditions: meal-fed rats, n=8 per group
Text: Example 2 was repeated using the same foods as shown in Table 1 but where the rats were meal-fed. […] The daily body weight (in grams per rat per day) was plotted against time for rats in each of the three diet groups over the first six days of the test. One-way analysis of variance with Tukey-Kramer multiple comparison test was used (n=8 per group, **p<0.001). […] The body weight of rats in the group fed the carbohydrate diet remained high throughout the feeding process. […] The daily food intake (in grams per rat per day) was plotted against time for rats in each of the three diet groups over the first seven days of the test. Again, one-way analysis of variance with Tukey-Kramer multiple comparison test was used (n=8 per group, ***p<0.001).

[7] = tested on: Krebs cycle and CoA intermediates in the brain; test: Brain Krebs cycle and CoA intermediates after 14 days of diet; type: in vivo, Wistar rats; conditions: rat brain
Description: In a 14-day study, Wistar rats weighing about 250 g were randomized to one of three diet groups (n=6 rats/group) and administered either a carbohydrate (“starch”) diet, a normal human (“fat”) diet or a ketone ester diet, in which the ketone ester used was the ketone monoester (3R)-hydroxybutyl (3R)-hydroxybutyrate diet (i.e. the compound of the invention). The three diets were eaten in pair fed meals for 3 hours per day. The composition of the diets expressed in terms of g/100 g are summarised in Table 5 and the compositions expressed in terms of % of calories are summarised in Table 6. After eating the 3 diets in pair fed meals for 3 hours per day for 14 days, the levels of various Krebs cycle and CoA intermediates in the brain were measured enzymatically and by mass spectrometry using standard techniques. […] Malonyl CoA is a metabolite known to be associated with decreased food intake; it is known to decrease appetite (Wolfgang, M. J. and Lane, M. D. (2006) J. Biol. Chem. 281, 37265-37269). […] The values in Table 7 are means, in μmoles/g wet weight, ±SEM with n=6 to 8. CoA's are given in nmol/g wet weight.

[8] = 28-day study, isonitrogenous and isocaloric diets (Example 4); type: in vivo, Wistar rats; conditions: for total amount of weight gained compared with CHOD and NHD groups: 28-day study; for feed intake during days 22 to 29: KD; for body weight on day 28: KD group
Text: In a 28-day study, male and female Wistar rats weighing approximately 350 g were randomized to one of three diet groups (n=10 males and 10 females/group) and administered either a carbohydrate diet (CHOD), a normal human diet (NHD), or a ketone diet (KD). The diets were isonitrogenous and isocaloric, differing only in their relative amounts of carbohydrate, fat, and ketones. In the KD, the ketone used was the ketone monoester (3R)-hydroxybutyl (3R)-hydroxybutyrate diet (i.e. the compound of the invention). In the KD, approximately ⅓ of the energy was derived from the ketone ester, while in the NHD and CHOD, ⅓ of the energy was derived from palmitate and starch, respectively.

[9] = tested on: free nucleotide ratios and concentrations in the brain; test: Calculated free nucleotide ratios and concentrations in freeze blown brain after 14 days of diet; type: in vivo, Wistar rats
Description: as §2
After the rats were fed on the diets for 14 days, the ratios of free nucleotide and the free nucleotide concentrations were determined. Measurements were performed on the freeze blown brain and metabolite ratios of the rats calculated as previously described (Veech, R. L. et al, J. Biol. Chem. 254:6538-47, 1979). The values in Table 8 are given as means±SEM (n=6 to 8). Cytosolic pH was assumed to be 7.2.

[10] = tested on: Cocaine-and-Amphetamine Responsive Transcript (CART); test: Neuropeptide levels in sectioned rat brain by antibody techniques: CART; type: in vivo; conditions: 14 days ketone diet
Description: as §1

[11] = rats, monoester diet, 66 days, n = 20
[12] = 14 days ketone ester diet, mean ± SEM
[13] = rat brain, 14 days ketone ester diet, mean ± SEM
[14] = rat brain, 14 days ketone ester diet, mean ± SEM, p < 0.05 vs starch and vs fat

C[C@@H](O)CCOC(=O)C[C@@H](C)O [Monoester, (3R)-hydroxybutyl (3R)-hydroxybutyrate]
blood levels of (3R)-hydroxybutyrate [1]: measurably raised
MC4R positive cell bodies in pm and mpd regions of the PVN, compared to fat diet (FIGS. 4 and 5) [2]: significantly higher density; also recorded: more MC4R activity; also recorded: Significantly greater numbers; also recorded: significantly denser area
food consumption compared with starch or fat diets [3]: consume less food
weight gain compared with starch or fat diets [3]: gain less weight
fat pad weight compared with Western or carbohydrate diet ([4]; end of the 66-day test): significantly lower
fat to body weight compared with other diets ([4]; end of the 66-day test): significantly lower
Final body weight ([4]; rats, monoester diet (30% of kilocalories), calorie-controlled, 66 days, n = 20): 213 ± 5 g
Heart to body weight [4, 11]: 0.29 ± 0.01%
Heart weight [4, 11]: 0.64 ± 0.02 g
Epididymal fat ([4]; rats, monoester diet, 66 days, n = 20, *P < 0.05): 1.48 ± 0.2* g
Epididymal fat to body weight ([4]; rats, monoester diet, 66 days, n = 20, *P < 0.05, in % (unit assumed)): 0.69 ± 0.1*
BDNF-positive cell bodies in the paraventricular nucleus (PVN), compared to fat and carbohydrate diets (FIG. 3) [5]: significantly more; also recorded: more BDNF; also recorded: significantly greater number
daily food intake compared with carbohydrate and Western diets (FIG. 2) ([6]; first seven days): ate less food; also recorded: consistently reduced
daily body weight compared with carbohydrate and Western diets (FIG. 1) ([6]; first six days): Significantly reduced; also recorded: lost more weight
malonyl CoA levels in the brain compared with other diets ([7]; 14 days): higher
Acetyl CoA [7, 12]: 6.43 ± 0.53 µM
Fumarate [7, 12]: 0.0745 ± 0.0058 μmoles/g wet weight
Isocitrate [7, 12]: 0.0093 ± 0.008 μmoles/g wet weight
L-Malate [7, 12]: 0.181 ± 0.013 μmoles/g wet weight
Succinate [7, 12]: 0.0864 ± 0.0033 μmoles/g wet weight
Succinyl CoA [7, 12]: 0.910 ± 0.207 µM
α-ketoglutarate [7, 12]: 0.140 ± 0.008 μmoles/g wet weight
Calc Oxaloacetate ([7]; 14 days ketone ester diet, mean ± SEM, calculated): 0.0026 ± 0.0004 μmoles/g wet weight
Citrate ([7]; 14 days ketone ester diet, mean ± SEM, n=6 to 8): 0.222 ± 0.010 μmoles/g wet weight
Malonyl CoA ([7]; 14 days ketone ester diet, mean ± SEM, p < 0.05 between ketone ester and starch): 1.26 ± 0.13 ^a μM
total amount of weight gained compared with CHOD and NHD groups ([8]; female rats): significantly less
feed intake during days 22 to 29 ([8]; female rats): 175 ± 12 g
body weight on day 28 ([8]; female rats): 240 ± 13 g
total amount of weight gained compared with CHOD and NHD groups ([8]; male rats): significantly less
feed intake during days 22 to 29 ([8]; male rats): 239 ± 17 g
body weight on day 28 ([8]; male rats): 390 ± 26 g
brain phosphorylation potential compared with carbohydrate and fat diets ([9]; after 14 days of diet): significantly higher
ΔG′ of ATP hydrolysis compared with carbohydrate and fat diets ([9]; after 14 days of diet): significantly higher
EhCoQ/CoQH2 from Fum/Succ [9, 13]: 28.9 ± 0.6 mV
Free [ADP] cytosol from PCr/Cr [9, 13]: 0.027 ± 0.001 µM/g
Free [AMP] cytosol from Kmyokinase [9, 13]: 0.0004 ± 0.00003 µM/g
Free [Mg^2+] from [Cit]/[Isocit] [9, 13]: 1.5 ± 0.13 mM
Free [NAD^+]/[NADH] mitochochondria from αKGxNH4^+/Glut [9, 13]: 0.80 ± 0.17
Free [NAD^+]/[NADPH] cytosol from αKGxCO2/IsoCit [9, 13]: 0.026 ± 0.003
Free [NAD^+]/[NADH] cytosol from Lactate/Pyruvate ([9]; rat brain, 14 days ketone ester diet, mean ± SEM, cytosolic pH assumed 7.2): 357 ± 27
Phosphorylation Potential from Kg + g (Eqn 1) [9, 14]: 38,100 ± 3,390 ^a, b M^−1
ΔG′ ATP [9, 14]: −59.6 ± 0.2 ^a, b kJ/mol
CART-positive cell bodies in VMH, ARC and ME areas of the hypothalamus (FIG. 7) [10]: highest numbers
CART positive cell bodies in the PVN, compared to fat and carbohydrate diets (FIGS. 6, 8, 9) ([10]; rat hypothalamus): highest level; also recorded: more CART; also recorded: significantly greater number; also recorded: highest density
